Measurements from ChEMBL document CHEMBL1201862, “PubChem BioAssay data set” (2004).
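Dose response: 5 concentrations. Exposure: 48 h. Format: 96-well plates. Endpoint: linear interpolation; highest concentration if not reached. GI50 = concentration required for 50% inhibition of growth.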 Activity calls are given as the source filed them. Rule as the data show it: active = GI50 up to about 1.1 µM and inactive = higher.

Tests used:
Experiment in all cases: NCI anticancer screen, dose series, 48 h
MDA-MB-231 = test system: MDA-MB-231
EKVX = test system: EKVX
COLO 205 = test system: COLO 205
OVCAR-8 = test system: OVCAR-8
NCI-H226 = test system: NCI-H226
NCI-H522 = test system: NCI-H522
CCRF-CEM = test system: CCRF-CEM
HOP-62 = test system: HOP-62
RXF 393 = test system: RXF 393
SN12C = test system: SN12C
BT-549 = test system: BT-549
HOP-92 = test system: HOP-92
HL-60 = test system: HL-60
UACC-257 = test system: UACC-257
MDA-MB-435 = test system: MDA-MB-435
Malme-3M = test system: Malme-3M
MOLT-4 = test system: MOLT-4
SW-620 = test system: SW-620
HCT-15 = test system: HCT-15

Row | Compound | GI50 (MDA-MB-231) | GI50 (EKVX) | GI50 (COLO 205) | GI50 (OVCAR-8) | GI50 (NCI-H226) | GI50 (NCI-H522) | GI50 (CCRF-CEM) | GI50 (HOP-62) | GI50 (RXF 393) | GI50 (SN12C) | GI50 (BT-549) | GI50 (HOP-92) | GI50 (HL-60) | GI50 (UACC-257) | GI50 (MDA-MB-435) | GI50 (Malme-3M) | GI50 (MOLT-4) | GI50 (SW-620) | GI50 (HCT-15) [µM]
1 | NS(=O)(=O)c1nnc(NC(=O)Nc2ccc(Cl)c(Cl)c2)s1 | 25.9 µM (inactive) | 28.8 µM (inactive) | 13.9 µM (inactive) | 20.4 µM (inactive) | 23.2 µM (inactive) | 11.7 µM (inactive) | 14.3 µM (inactive) | 17.8 µM (inactive) | 16.7 µM (inactive) | 19.3 µM (inactive) | 20 µM (inactive) | 16.3 µM (inactive) | 28.8 µM (inactive) | 16.5 µM (inactive) | 20.3 µM (inactive) | 17.6 µM (inactive) | 32.5 µM (inactive) | 27.9 µM (inactive) | 21.2
2 | C/C=C/C=C\C1OC(O)([C@H](CC)C(=O)NC/C=C/C=C(\C)[C@H](OC)C(C)C2OC(\C=C/C=C/C=C(\C)C(=O)c3c(O)ccn(C)c3=O)[C@H](O)[C@@H]2O)C(O)C(O)C1(C)C (some centres undefined) | > 100 µM (inactive) | > 100 µM (inactive) | > 100 µM (inactive) | 82.8 µM (inactive) | > 100 µM (inactive) | > 100 µM (inactive) | 38.4 µM (inactive) | > 100 µM (inactive) | > 100 µM (inactive) | 75.3 µM (inactive) | > 100 µM (inactive) | > 100 µM (inactive) | 54.3 µM (inactive) | > 100 µM (inactive) | > 100 µM (inactive) |  | 41.9 µM (inactive) | > 100 µM (inactive) | > 100
3 | COc1cc2c(cc1OC)C(C1CC1)ON(C)CC2 (centres undefined) | > 100 µM (inactive) | 58.7 µM (inactive) | > 100 µM (inactive) | > 100 µM (inactive) | > 100 µM (inactive) | > 100 µM (inactive) | > 100 µM (inactive) | > 100 µM (inactive) | > 100 µM (inactive) | > 100 µM (inactive) | > 100 µM (inactive) | > 100 µM (inactive) | > 100 µM (inactive) | > 100 µM (inactive) | > 100 µM (inactive) | > 100 µM (inactive) | > 100 µM (inactive) | > 100 µM (inactive) | > 100
4 | C[N+](C)(C)/N=C\c1ccc(O)c(O)c1 | > 100 µM (inactive) | > 100 µM (inactive) | > 100 µM (inactive) | > 100 µM (inactive) | > 100 µM (inactive) | > 100 µM (inactive) | > 100 µM (inactive) | > 100 µM (inactive) | > 100 µM (inactive) | > 100 µM (inactive) | > 100 µM (inactive) | > 100 µM (inactive) | > 100 µM (inactive) | > 100 µM (inactive) | > 100 µM (inactive) | > 100 µM (inactive) | > 100 µM (inactive) | > 100 µM (inactive) | > 100
5 | CC1(C)[C@H]2CC[C@](C)(C2)[C@]1(S)Cc1ccccn1 | 37 µM (inactive) | 46.5 µM (inactive) | 34.3 µM (inactive) | 17.5 µM (inactive) |  | 65.9 µM (inactive) | 5 µM (inactive) | 29.6 µM (inactive) | 26.7 µM (inactive) | 56.8 µM (inactive) | 90.4 µM (inactive) | 34.5 µM (inactive) | 11.2 µM (inactive) | 25.6 µM (inactive) | 26.3 µM (inactive) | 46.1 µM (inactive) | 15.3 µM (inactive) | 36.3 µM (inactive) | 41.7
6 | O=C(Nc1ccccc1)N1CCNC1=S | > 100 µM (inactive) | 53 µM (inactive) | > 100 µM (inactive) | > 100 µM (inactive) | 87.5 µM (inactive) | > 100 µM (inactive) | > 100 µM (inactive) | > 100 µM (inactive) | 26.5 µM (inactive) | > 100 µM (inactive) | 65.5 µM (inactive) | > 100 µM (inactive) | > 100 µM (inactive) |  | > 100 µM (inactive) | > 100 µM (inactive) | > 100 µM (inactive) | > 100 µM (inactive) | > 100
7 | NC(Cc1ccc(S(=O)(=O)O)cc1)C(=O)NC(Cc1ccc(S(=O)(=O)O)cc1)C(=O)NC(Cc1ccc(S(=O)(=O)O)cc1)C(=O)O (centres undefined) | > 100 µM (inactive) | > 100 µM (inactive) | > 100 µM (inactive) | > 100 µM (inactive) | > 100 µM (inactive) | > 100 µM (inactive) | > 100 µM (inactive) | > 100 µM (inactive) | > 100 µM (inactive) | > 100 µM (inactive) | > 100 µM (inactive) |  | > 100 µM (inactive) | > 100 µM (inactive) | > 100 µM (inactive) | > 100 µM (inactive) | > 100 µM (inactive) | > 100 µM (inactive) | > 100
